We go through 40 molecules from patent publication US9403843B2, “Cysteine protease inhibitors and uses thereof” (The Trustees of Columbia University in the City of New York, priority 2012, dated 2016).

pIC50: −log10 of the molar value. “Also recorded” adds a separate entry of the source.

T1 sequence (P07384 whole entry): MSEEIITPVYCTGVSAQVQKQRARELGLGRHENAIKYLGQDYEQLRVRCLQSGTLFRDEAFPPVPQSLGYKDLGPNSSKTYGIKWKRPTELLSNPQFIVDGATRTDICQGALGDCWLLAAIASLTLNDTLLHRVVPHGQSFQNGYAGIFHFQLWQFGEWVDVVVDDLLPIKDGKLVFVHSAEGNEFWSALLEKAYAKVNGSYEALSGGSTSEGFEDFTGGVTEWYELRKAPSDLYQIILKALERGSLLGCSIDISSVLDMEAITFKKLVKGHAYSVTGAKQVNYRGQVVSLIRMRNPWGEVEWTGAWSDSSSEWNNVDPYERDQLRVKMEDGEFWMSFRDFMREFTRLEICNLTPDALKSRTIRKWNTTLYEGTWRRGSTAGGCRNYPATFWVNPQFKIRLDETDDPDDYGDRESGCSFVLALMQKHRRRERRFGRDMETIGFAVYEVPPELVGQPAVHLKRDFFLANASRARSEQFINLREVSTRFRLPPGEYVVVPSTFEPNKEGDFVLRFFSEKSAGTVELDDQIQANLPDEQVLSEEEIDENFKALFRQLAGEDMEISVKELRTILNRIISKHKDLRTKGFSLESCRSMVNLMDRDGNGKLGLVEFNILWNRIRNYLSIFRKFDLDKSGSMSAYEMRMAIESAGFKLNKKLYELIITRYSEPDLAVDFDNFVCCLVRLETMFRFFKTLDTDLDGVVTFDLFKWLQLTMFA
T1 sequence (P04632 whole entry partner): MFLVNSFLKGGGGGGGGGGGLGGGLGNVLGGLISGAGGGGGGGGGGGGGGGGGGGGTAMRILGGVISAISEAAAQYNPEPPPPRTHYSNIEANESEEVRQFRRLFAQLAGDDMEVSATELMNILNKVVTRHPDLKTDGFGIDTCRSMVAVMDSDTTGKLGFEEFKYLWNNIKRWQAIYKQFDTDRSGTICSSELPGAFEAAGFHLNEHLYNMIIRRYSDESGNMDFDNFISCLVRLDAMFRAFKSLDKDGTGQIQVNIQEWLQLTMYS

One assay concerns the target T1, full-length human Cal1 (Homo sapiens (Human), UniProt P07384). The assay is described as follows: Calpain inhibition FRET assay.
Conditions: not given
Format: biochemical. Here is the method:
Calpain activity was measured using full-length human Cal1 in the presence of a FRET substrate. IC50 values were approximated by co-incubation of varying concentrations of the appropriate inhibitor (10, 100, 500, 1000 nM) in the presence of the FRET substrate (DABCYL)TPLK-SPPSPR-(EDANS) (SEQ ID NO: 5) and activation buffer. […] A peptide inhibitor, Z-LLY-FMK (SEQ ID NO: 6), was used as a positive control.
The Calbiochem InnoZyme activity kit was used for measuring the inhibition effect inhibitors on human erythrocyte calpain 1 activity. […] 20 μM of the FRET substrate, 10 nM of native Cal1, and 20 μM TCEP (reducing agent) were added to the reaction mixture containing assay buffer (Tris [10 mM], NaCl [100 mM], pH 7.4). Cal1 was activated by the addition of 10 μM calcium. Cleavage of the scissile bond amide bond, K-S, releases the fluorophore (EDANS) from the internal quenching molecule (DABCYL), resulting in an increase in fluorescence measured at 320 nm excitation and 480 nm emission wave lengths for 30 min. Each inhibitor was added to the reaction mixture at varying concentrations (10 nM, 100 nM, 1 μM, and 10 μM) to detect inhibition of Cal1 and reduction in fluorescence was measured by 96 well-plate reader. Approximate IC50 values of each compound were generated using linear regression within Graphpad Prism Software.
`O=C(NCc1cn(-c2ccc([N+](=O)[O-])cc2)nn1)[C@H](Cc1cscn1)NC(=O)[C@H]1O[C@@H]1C(=O)O` [Compound 56, (2S,3S)-3-((S)-1-((1-(4-nitrophenyl)-1H-1,2,3-triazol-4-yl)methylamino)-1-oxo-3-(thiazol-4-yl)propan-2-ylcarbamoyl)oxirane-2-carboxylic acid]: the “Cal1 inhibition (in words)” value is “potent activity”. For `O=C(NCc1cn(-c2ccc3c(c2)OCO3)nn1)[C@H](Cc1cscn1)NC(=O)[C@H]1O[C@@H]1C(=O)O` [Compound 52, (2S,3S)-3-((S)-1-((1-(benzo[d][1,3]dioxol-5-yl)-1H-1,2,3-triazol-4-yl)methylamino)-1-oxo-3-(thiazol-4-yl)propan-2-ylcarbamoyl)oxirane-2-carboxylic acid], the “Cal1 inhibition (in words)” value is given as “potent activity”.

Consider `O=C(NCc1cn(-c2cc(C(F)(F)F)cc(C(F)(F)F)c2)nn1)[C@H](Cc1cscn1)NC(=O)[C@H]1O[C@@H]1C(=O)O` [Compound 54, (2S,3S)-3-((S)-1-((1-(3,5-bis(trifluoromethyl)phenyl)-1H-1,2,3-triazol-4-yl)methylamino)-1-oxo-3-(thiazol-4-yl)propan-2-ylcarbamoyl)oxirane-2-carboxylic acid], for which the “Cal1 inhibition (in words)” value is “relatively high IC50 values; also recorded: weak activity”.

Still in this assay, the particulars now being: Table 2; approximate IC50; read-out: Cal I IC50.
The term pIC50 denotes −log10 of the IC50, conventionally taken in molar units. On to `CC(C)C[C@H](NC(=O)[C@H]1O[C@@H]1C(=O)O)C(=O)Nc1ccccc1` [Compound 22, (2S,3S)-3-((S)-4-methyl-1-oxo-1-(phenylamino)pentan-2-ylcarbamoyl)oxirane-2-carboxylic acid], for which the pIC50 was 7.00. On to `CC(C)C[C@H](NC(=O)[C@H]1O[C@@H]1C(=O)O)C(=O)NCc1cn(-c2ccc(F)cc2)nn1` [Compound 86], for which the pIC50 was 7.52. On the same count and under the same terms, then `CC(C)C[C@H](NC(=O)[C@H]1O[C@@H]1C(=O)O)C(=O)Nc1c(F)cccc1F` [Compound 23a, (2S,3S)-3-((S)-1-(2,6-difluorophenylamino)-4-methyl-1-oxopentan-2-ylcarbamoyl)oxirane-2-carboxylic acid], with 7.30; and `CCOC(=O)[C@@H]1O[C@H]1C(N)=O` [Compound 76], with less than 6.00.

In the case of `O=C(Nc1ccccc1)[C@H](Cc1cnc[nH]1)NC(=O)[C@H]1O[C@@H]1C(=O)O` [Compound 28, (2S,3S)-3-((S)-3-(1H-imidazol-4-yl)-1-oxo-1-(phenylamino)propan-2-ylcarbamoyl)oxirane-2-carboxylic acid], the negative logarithm of the IC50 (pIC50) is 5.30.

Take `Cn1cncc1C[C@H](NC(=O)[C@H]1O[C@@H]1C(=O)O)C(=O)Nc1nc(-c2ccc(F)cc2)cs1` [Compound 35, (2S,3S)-3-((S)-1-(4-(4-fluorophenyl)thiazol-2-ylamino)-3-(1-methyl-1H-imidazol-5-yl)-1-oxopropan-2-ylcarbamoyl)oxirane-2-carboxylic acid]: the pIC50 is 5.30. With `CCOC(=O)[C@@H]1O[C@H]1C(=O)NCc1ccc(CO)cc1` [Compound 79], the pIC50 is less than 6.00.

Consider `CC(C)C[C@H](NC(=O)C1OC1c1ccccc1)C(=O)NCCCCNC(=O)CCCCC1CCSS1` (some centres unmarked) [Compound 62], for which the pIC50 was less than 6.00. As for `Cc1cc(C)c(NC(=O)[C@H](Cc2cnc[nH]2)NC(=O)[C@H]2O[C@@H]2C(=O)O)c(C)c1` [Compound 29, (2S,3S)-3-((S)-3-(1H-imidazol-5-yl)-1-(mesitylamino)-1-oxopropan-2-ylcarbamoyl)oxirane-2-carboxylic acid], the pIC50 was 5.30.

For the molecule `C#CCNC(=O)[C@H](CC(C)C)NC(=O)[C@H]1O[C@@H]1C(=O)O` [Compound 88], the pIC50 is 6.56.

`CCOC(=O)[C@H]1O[C@@H]1C(=O)NCc1ccc(CO)cc1` [Compound 82]: the pIC50 is less than 6.00. In the case of `CCOC(=O)[C@H]1O[C@@H]1C(=O)N[C@@H](CC(C)C)C(=O)N(C)c1nc(-c2ccc(F)cc2)cs1` [Compound 71], the pIC50 is less than 6.00.

Turning to `O=C(O)[C@H]1O[C@@H]1C(=O)NCc1ccc(CO)cc1` [Compound 83], the pIC50 is less than 6.00. `CCOC(=O)[C@H]1OC1C(=O)N[C@@H](CC(C)C)C(=O)NCCCCNS(=O)(=O)c1ccc(F)cc1` (some centres unmarked) [Compound 63]: the pIC50 was less than 6.00. As for `CCOC(=O)[C@@H]1O[C@H]1C(=O)N[C@@H](CC(C)C)C(=O)Nc1nc(-c2ccc(F)cc2)cs1` [Compound 75], the pIC50 is less than 6.00.

As to `CCOC(=O)[C@H]1O[C@@H]1C(=O)N[C@@H](CC(C)C)C(=O)Nc1c(F)cccc1F` [Compound 81], the pIC50 is less than 6.00. With `CCOC(=O)[C@@H]1O[C@H]1C(=O)N[C@@H](CC(C)C)C(=O)Nc1c(F)cccc1F` [Compound 80], the pIC50 was less than 6.00. Same read-out and setting: to `CC(C)C[C@H](NC(=O)C1OC1c1ccccc1)C(=O)NCCCCNC(=N)N` (some centres unmarked) [Compound 65] belongs less than 6.00.

As to `C#CCNC(=O)[C@H](CC(C)C)NC(=O)C1OC1c1ccccc1` (some centres unmarked) [Compound 60], the pIC50 is less than 6.00. Regarding `O=C(Nc1nc2ccc(F)cc2s1)[C@H](Cc1c[nH]cn1)NC(=O)[C@@H]1O[C@H]1C(=O)O` [Compound 31b, (2R,3R)-3-((S)-1-(6-fluorobenzo[d]thiazol-2-ylamino)-3-(1H-imidazol-4-yl)-1-oxopropan-2-ylcarbamoyl)oxirane-2-carboxylic acid], the pIC50 was less than 6.00. Turning to `O=C(NCc1cn(-c2ccc3c(c2)OCO3)nn1)[C@H](Cc1cscn1)NC(=O)[C@H]1O[C@@H]1C(=O)O` [Compound 52, (2S,3S)-3-((S)-1-((1-(benzo[d][1,3]dioxol-5-yl)-1H-1,2,3-triazol-4-yl)methylamino)-1-oxo-3-(thiazol-4-yl)propan-2-ylcarbamoyl)oxirane-2-carboxylic acid], the pIC50 is 6.40.

`O=C(NCc1cn(-c2cc(C(F)(F)F)cc(C(F)(F)F)c2)nn1)[C@H](Cc1cscn1)NC(=O)[C@H]1O[C@@H]1C(=O)O` [Compound 54, (2S,3S)-3-((S)-1-((1-(3,5-bis(trifluoromethyl)phenyl)-1H-1,2,3-triazol-4-yl)methylamino)-1-oxo-3-(thiazol-4-yl)propan-2-ylcarbamoyl)oxirane-2-carboxylic acid]: the pIC50 was less than 6.00. For the molecule `CC(C)C[C@H](NC(=O)[C@H]1O[C@@H]1C(=O)O)C(=O)NCc1cn(-c2ccc(S(N)(=O)=O)cc2)nn1` [Compound 87], the pIC50 is 7.30. With `CCOC(=O)[C@H]1O[C@@H]1C(=O)NC1(C(=O)NCCCCNS(=O)(=O)c2ccc(F)cc2)CCCCC1` [Compound 69], the pIC50 was less than 6.00. Same read-out and setting: to `CC(C)NC(=O)[C@@H]1O[C@H]1C(=O)O` [Compound 74] belongs less than 6.00; to `CCOC(=O)[C@H]1O[C@@H]1C(=O)N[C@@H](Cc1cnc[nH]1)C(=O)Nc1nc(-c2ccc(F)cc2)cs1` [Compound 78], less than 6.00; to `CCOC(=O)[C@H]1O[C@@H]1C(=O)N[C@@H](Cc1cnc[nH]1)C(=O)Nc1ccccc1` [Compound 85], less than 5.00. On the same count and under the same terms, to `O=C(Nc1nc2ccc(F)cc2s1)[C@H](Cc1c[nH]cn1)NC(=O)[C@H]1O[C@@H]1C(=O)O` [Compound 31a, (2S,3S)-3-((S)-1-(6-fluorobenzo[d]thiazol-2-ylamino)-3-(1H-imidazol-4-yl)-1-oxopropan-2-ylcarbamoyl)oxirane-2-carboxylic acid] belongs 6.27; to `O=C(Nc1nc(-c2ccc(F)cc2)cs1)[C@H](Cc1c[nH]cn1)NC(=O)[C@@H]1O[C@H]1C(=O)O` [Compound 30b, (2R,3R)-3-((S)-1-(4-(4-fluorophenyl)thiazol-2-ylamino)-3-(1H-imidazol-4-yl)-1-oxopropan-2-ylcarbamoyl)oxirane-2-carboxylic acid], less than 6.00; to `CCOC(=O)[C@@H]1O[C@H]1C(=O)NC(C)C` [Compound 73], less than 6.00. With `CC(C)C[C@H](NC(=O)[C@H]1O[C@@H]1C(=O)O)C(=O)N(C)c1nc(-c2ccc(F)cc2)cs1` [Compound 72], the pIC50 was 6.70. Same read-out and setting: then `CC(C)C[C@H](NC(=O)[C@H]1O[C@@H]1C(=O)O)C(=O)NCCCCNS(=O)(=O)c1ccc(F)cc1` [Compound 68], with 7.00; and `CCOC(=O)[C@H]1O[C@@H]1C(=O)N[C@@H](CC(C)C)C(=O)Nc1nc(-c2ccc(F)cc2)cs1` [Compound 70], with less than 6.00; and `CCOC(=O)[C@H]1OC1C(=O)N[C@@H](CC(C)C)C(=O)NCCCCNC(=O)CCCC[C@@H]1SC[C@@H]2NC(=O)N[C@@H]21` (some centres unmarked) [Compound 59], with less than 6.00. Same read-out and setting: to `CCOC(=O)[C@H]1O[C@@H]1C(=O)N[C@@H](CC(C)C)C(=O)Nc1ccccc1` [Compound 84] belongs 5.60; to `CCOC(=O)[C@@H]1O[C@H]1C(=O)N[C@@H](Cc1cnc[nH]1)C(=O)Nc1nc(-c2ccc(F)cc2)cs1` [Compound 77], less than 6.00.

Another assay concerns the target T1, full-length human Cal1. The assay is described as follows: Calpain inhibition FRET assay. Format: biochemical. The note with it: Table 3, 20 min incubation, FRET substrate.
Molecule `CC(C)C[C@H](NC(=O)[C@H]1O[C@@H]1C(=O)O)C(=O)Nc1c(F)cccc1F` [Compound 23a, (2S,3S)-3-((S)-1-(2,6-difluorophenylamino)-4-methyl-1-oxopentan-2-ylcarbamoyl)oxirane-2-carboxylic acid] gave a negative-log IC50 (pIC50) of 7.00. The molecule `O=C(NCc1cn(-c2ccc([N+](=O)[O-])cc2)nn1)[C@H](Cc1cscn1)NC(=O)[C@H]1O[C@@H]1C(=O)O` [Compound 56, (2S,3S)-3-((S)-1-((1-(4-nitrophenyl)-1H-1,2,3-triazol-4-yl)methylamino)-1-oxo-3-(thiazol-4-yl)propan-2-ylcarbamoyl)oxirane-2-carboxylic acid] had a pIC50 of 6.52.

Still in this assay, the particulars now being: Table 3, 20 min incubation, FRET substrate, >1: inhibition not quantifiable at 1 μM.
`O=C(Nc1ccccc1)[C@H](Cc1cscn1)NC(=O)[C@H]1O[C@@H]1C(=O)O` [Compound 32, (2S,3S)-3-((S)-1-oxo-1-(phenylamino)-3-(thiazol-4-yl)propan-2-ylcarbamoyl)oxirane-2-carboxylic acid]: the pIC50 was 5.60.

With `O=C(NCc1cn(-c2ccc(S(=O)(=O)N3CCCCC3)cc2)nn1)[C@H](Cc1cscn1)NC(=O)[C@H]1O[C@@H]1C(=O)O` [Compound 51, (2S,3S)-3-((S)-1-oxo-1-((1-(4-(piperidin-1-ylsulfonyl)phenyl)-1H-1,2,3-triazol-4-yl)methylamino)-3-(thiazol-4-yl)propan-2-ylcarbamoyl)oxirane-2-carboxylic acid], the pIC50 was 5.82. In turn, `O=C(Nc1nc2ccc(F)cc2s1)[C@H](Cc1c[nH]cn1)NC(=O)[C@@H]1O[C@H]1C(=O)O` [Compound 31b, (2R,3R)-3-((S)-1-(6-fluorobenzo[d]thiazol-2-ylamino)-3-(1H-imidazol-4-yl)-1-oxopropan-2-ylcarbamoyl)oxirane-2-carboxylic acid] had a pIC50 of less than 6.00. The same measure, in the same setting: to `O=C(NCc1cn(-c2cc(C(F)(F)F)cc(C(F)(F)F)c2)nn1)[C@H](Cc1cscn1)NC(=O)[C@H]1O[C@@H]1C(=O)O` [Compound 54, (2S,3S)-3-((S)-1-((1-(3,5-bis(trifluoromethyl)phenyl)-1H-1,2,3-triazol-4-yl)methylamino)-1-oxo-3-(thiazol-4-yl)propan-2-ylcarbamoyl)oxirane-2-carboxylic acid] belongs less than 6.00.

For the molecule `O=C(Nc1nc(-c2ccc(F)cc2)cs1)[C@H](Cc1c[nH]cn1)NC(=O)[C@@H]1O[C@H]1C(=O)O` [Compound 30b, (2R,3R)-3-((S)-1-(4-(4-fluorophenyl)thiazol-2-ylamino)-3-(1H-imidazol-4-yl)-1-oxopropan-2-ylcarbamoyl)oxirane-2-carboxylic acid], the pIC50 was less than 6.00. Same read-out and setting: to `O=C(NCc1cn(-c2ccccc2)nn1)[C@H](Cc1cscn1)NC(=O)[C@H]1O[C@@H]1C(=O)O` [Compound 49, (2S,3S)-3-((S)-1-oxo-1-((1-phenyl-1H-1,2,3-triazol-4-yl)methylamino)-3-(thiazol-4-yl)propan-2-ylcarbamoyl)oxirane-2-carboxylic acid] belongs 6.00.
